These results are taken from PMC10951960, “CGP7930 - An allosteric modulator of GABABRs, GABAARs and inwardly-rectifying potassium channels” (Neuropharmacology, 2023).

Assay [1] relates to native GABAARs in hippocampal neurons. In words: muscimol-activated and CGP7930-activated GABAAR currents in hippocampal neurons, Cs+-based internal solution. Format: cell-based, rat. The procedure: Briefly, single cells derived from dissected hippocampi were seeded onto glass coverslips coated with poly-D-lysine in a plating medium containing minimum essential media with 5% v/v heat-inactivated FCS, 5% v/v heat-inactivated horse serum, penicillin-G/streptomycin (100 U/100 μg/ml), 2 mM L-glutamine, and 20 mM glucose. Two hr after plating the media was changed to a Neurobasal-A based maintenance media supplemented with 1% v/v B-27, penicillin-G/streptomycin (100 U/100 μg/ml), 0.5% v/v Glutamax and 35 mM glucose.
(§1) Spontaneous inhibitory postsynaptic currents (sIPSCs) were recorded from cultured hippocampal neurons at 12–17 days in vitro (DIV). […] For recording K^+ currents in GIRK cells and neurons, the bath solution was switched to a high K^+ solution containing 25 mM KCl and reduced NaCl (120 mM), to shift the equilibrium potential for K^+ from approximately −90 to −47 mV, thus reversing the direction of K^+ current flux to net inward. GABABR-activated K^+ currents in cultured neurons were recorded in the additional presence of 2 mM kynurenic acid and 20 μM picrotoxin.
(§2) Borosilicate glass electrodes (3–5 MΩ) were filled with a K^+-based internal solution for recording GIRK currents containing (mM): 120 KCl, 2 MgCl2, 11 EGTA, 30 KOH, 10 HEPES, 1 CaCl2, 1 GTP, 2 ATP, 14 creatine phosphate, pH 7.0. GABAAR currents and sIPSCs were recorded with a Cs-based internal solution containing (mM): 120 CsCl, 1 MgCl2, 11 EGTA, 30 KOH, 10 HEPES, 1 CaCl2, and 2 K2ATP; pH 7.2. […] Cells were held at −60 mV (sIPSCs) or −60/−70 mV (K^+ currents). Voltage clamp recordings were undertaken after optimising series resistance (Rs, <10 MΩ) and compensating for the whole-cell membrane capacitance. Membrane currents were filtered at 5 kHz (−3 dB, 6th pole Bessel, 36 dB/octave) and stored for analysis with Clampex 10.
(§3) Concentration-response curves were generated by measuring the current (I) for each ligand concentration and normalising to the maximal current response (Imax).

The target in assay [2] is T1, α4β3δ GABAAR (Mus musculus, UniProt P22933+P63080+Q9D6F4).
T1 construct: expressed in transfected cells; host or cells: HEK-293T
T1 sequence (Q9D6F4 36-552): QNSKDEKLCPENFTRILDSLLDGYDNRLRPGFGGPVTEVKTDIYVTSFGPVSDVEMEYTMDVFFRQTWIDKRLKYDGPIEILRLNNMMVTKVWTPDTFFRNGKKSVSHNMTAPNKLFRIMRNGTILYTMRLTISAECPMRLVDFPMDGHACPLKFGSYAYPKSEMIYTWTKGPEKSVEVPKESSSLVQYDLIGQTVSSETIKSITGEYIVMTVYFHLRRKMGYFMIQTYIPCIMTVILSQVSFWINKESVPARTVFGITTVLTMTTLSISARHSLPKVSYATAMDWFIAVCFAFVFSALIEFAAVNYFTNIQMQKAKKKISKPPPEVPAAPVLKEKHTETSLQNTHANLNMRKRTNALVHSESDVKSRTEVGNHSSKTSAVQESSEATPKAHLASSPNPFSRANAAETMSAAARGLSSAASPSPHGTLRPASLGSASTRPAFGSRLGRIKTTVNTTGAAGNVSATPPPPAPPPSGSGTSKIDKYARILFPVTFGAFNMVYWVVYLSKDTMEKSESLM
T1 sequence (P63080 26-473): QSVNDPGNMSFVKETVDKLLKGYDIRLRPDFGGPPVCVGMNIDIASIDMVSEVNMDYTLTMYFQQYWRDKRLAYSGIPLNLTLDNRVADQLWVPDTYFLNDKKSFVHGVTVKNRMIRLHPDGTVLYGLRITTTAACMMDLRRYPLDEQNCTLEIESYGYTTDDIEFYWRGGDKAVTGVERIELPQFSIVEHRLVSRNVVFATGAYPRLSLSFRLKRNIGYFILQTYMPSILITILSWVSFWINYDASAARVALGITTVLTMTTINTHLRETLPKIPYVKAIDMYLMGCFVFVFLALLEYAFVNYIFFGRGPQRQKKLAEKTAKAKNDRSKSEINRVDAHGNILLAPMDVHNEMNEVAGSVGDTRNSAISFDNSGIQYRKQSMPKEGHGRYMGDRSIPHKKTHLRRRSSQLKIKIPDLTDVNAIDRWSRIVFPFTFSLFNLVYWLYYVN
T1 sequence (P22933 17-449 limits assumed): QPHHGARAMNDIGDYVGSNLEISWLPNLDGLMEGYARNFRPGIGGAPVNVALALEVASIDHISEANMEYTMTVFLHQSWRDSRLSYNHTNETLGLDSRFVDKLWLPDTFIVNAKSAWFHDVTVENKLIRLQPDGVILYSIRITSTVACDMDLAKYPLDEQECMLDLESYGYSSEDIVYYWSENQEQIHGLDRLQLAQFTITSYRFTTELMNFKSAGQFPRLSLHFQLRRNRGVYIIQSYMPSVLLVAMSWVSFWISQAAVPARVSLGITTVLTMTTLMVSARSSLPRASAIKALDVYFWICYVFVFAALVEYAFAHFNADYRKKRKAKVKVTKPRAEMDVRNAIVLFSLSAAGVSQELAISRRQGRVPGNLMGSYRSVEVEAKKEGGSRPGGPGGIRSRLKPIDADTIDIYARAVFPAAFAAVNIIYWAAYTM
In words: whole-cell currents of recombinant GABAA receptors in HEK-293 cells (α4β3δ). It is filed as cell-based, murine. How it is done: CGP55845, and other drugs, were obtained from Merck (Sigma-Aldrich) unless otherwise stated.
All cell culture reagents were acquired from ThermoFisher unless otherwise stated. […] These cells are referred to as GIRK cells throughout the text and were transiently transfected with cDNAs for eGFP, GABAB R1a and R2 in a 1:1:5 ratio applied 1–2 h after cell plating.
as §1, §2, §3
We explored the ability of CGP7930 to modulate different recombinant GABAARs expressed in HEK-293 cells to avoid confounds arising from heterogeneous receptor subtypes in neurons.

Read-outs that look alike come from different tables or passages of the source.

One may read the EC50 as the midpoint of the concentration-response curve. Broadly, the IC50 is the concentration at which inhibition is half-maximal. For the compound `CC(C)(CO)Cc1cc(C(C)(C)C)c(O)c(C(C)(C)C)c1` [CGP7930, 3-(3′,5′-Di-tert-butyl-4′-hydroxy) phenyl-2,2-dimethylpropanol], in assay [1] (hippocampal neurons, n = 8), the “maximal direct activation compared to maximal GABAAR activation by saturating muscimol” value is on record as 42.1 ± 1.8%. Also, the 50% effective concentration (EC50) amounted to 5.2 ± 0.1 µM in assay [1] (hippocampal neurons, n = 8, read-out: EC50 for direct activation (CGP7930 alone)); 2 ± 1.1 µM in assay [1] (∼EC10-15 muscimol (0.5 μM), direct effect subtracted, n = 10, read-out: EC50 for CGP7930 potentiation of muscimol response); 1 ± 0.3 µM in assay [2] (EC50 of GABA EC20 modulation curve, α4β3δ, ∼EC20 GABA, n = 7); 13.1 ± 1.4 µM in assay [2] (α4β3δ (αβδ), read-out: EC50 for direct activation by CGP7930 alone). For the same compound, the IC50 in assay [1] (∼EC10-15 muscimol (0.5 μM), direct effect subtracted, n = 10, read-out: IC50 of bell-shaped muscimol potentiation curve) came out at 7.9 ± 1.8 µM; in assay [2], 19.6 ± 13.1 µM. Moreover, the “threshold for direct activation” value in assay [2] (α4β3δ, CGP7930 alone) is 1 to 3 µM.
